Measurements: patent US6726928B2, “Process for preparing solid dosage forms for unpalatable pharmaceuticals” (R.P. Scherer Technologies, Inc., priority 1994, dated 2004)

Assay: pH dependence of Piroxicam solubility
Format: physicochemical
Text: The solubility of weak acids and weak bases may be adjusted by pH control. Increasing the pH of a solution can decrease solubility of a weak base, whereas the solubility of a weak acid can be […] by a pH decrease. The relative levels of weak acid or weak base added to the drug can be calculated with the knowledge of the Henderson-Hasselbalch equation, and by calculation of the pKa of the drug concerned in the solvent in question. […] Piroxicam ([…]) has a “U”-shaped pH solubility curve with a minimum around pH 3.5. […] A further advantage arising out of the reduced solubility of Piroxicam is reduced formation of the hydrate which has a bright yellow color.

## CN1C(C(=O)Nc2ccccn2)=C(O)c2ccccc2S1(=O)=O [Piroxicam]
  pH of minimum of the U-shaped pH solubility curve: ~3.5
pH adjusted from about 6.5 to approximately 4.0 by addition of an acid such as citric acid
  change in solubility on pH adjustment: approximately tenfold decrease in solubility
